The source of these data is publication PMC7870829, “Structural basis for the biosynthesis of lovastatin” (Nature Communications, 2021).

One assay concerns the target T1, LovB (Aspergillus terreus, UniProt Q9Y8A5).
T1 construct: dimer; ACP and CON domains not resolved; DSS-crosslinked with LovC for cryo-EM
In words: cryo-EM structure. The assay is classed as binding. Conditions: KR domain NADPH pocket; sample with 2 mM each Mal-CoA, NADPH and SAM; pH 8.0.

The next assay deals with T2, LovC (Aspergillus terreus, UniProt Q9Y7D0).
T2 construct: full-length, His-tagged (pET28_LovCcH), expressed in E. coli, without LovB
T2 sequence (Q9Y7D0 1-363): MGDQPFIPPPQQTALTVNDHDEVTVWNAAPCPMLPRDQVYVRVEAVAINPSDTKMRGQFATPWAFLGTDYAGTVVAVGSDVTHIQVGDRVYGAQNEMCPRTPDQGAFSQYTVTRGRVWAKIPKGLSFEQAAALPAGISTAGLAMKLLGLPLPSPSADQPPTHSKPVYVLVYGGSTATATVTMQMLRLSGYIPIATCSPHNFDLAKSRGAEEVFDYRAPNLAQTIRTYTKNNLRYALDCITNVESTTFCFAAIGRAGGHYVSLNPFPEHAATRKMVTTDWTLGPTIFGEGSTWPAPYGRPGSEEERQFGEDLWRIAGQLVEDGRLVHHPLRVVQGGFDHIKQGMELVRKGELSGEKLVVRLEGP
In words: NADPH fluorescence (Ex […] nm, Em […] nm). The format is biochemical. The note with it: 100 μM NADPH, 200 μM crotonoyl-CoA, 100 mM KH2PO4 pH 7.0, 2% DMSO, 25 °C.

Assay [1] deals with lovastatin nonaketide synthase (LovB), full-length, His-tagged (Aspergillus terreus) (UniProt Q9Y8A5). The assay is described as follows: cryo-EM structure; LovB mixed with LovC and 2 mM each of Mal-CoA, NADPH and SAM, cross-linked with DSS, SEC on Superose 6 Increase (50 mM Tricine pH 8.0, 4 mM SAM), cofactors re-added, 0.1% Tween 20; maps at 2.91 Å (LovB) and 3.60 Å (LovBC with one LovC).

T1 sequence (Q9Y8A5 whole entry, the tested form may be a part): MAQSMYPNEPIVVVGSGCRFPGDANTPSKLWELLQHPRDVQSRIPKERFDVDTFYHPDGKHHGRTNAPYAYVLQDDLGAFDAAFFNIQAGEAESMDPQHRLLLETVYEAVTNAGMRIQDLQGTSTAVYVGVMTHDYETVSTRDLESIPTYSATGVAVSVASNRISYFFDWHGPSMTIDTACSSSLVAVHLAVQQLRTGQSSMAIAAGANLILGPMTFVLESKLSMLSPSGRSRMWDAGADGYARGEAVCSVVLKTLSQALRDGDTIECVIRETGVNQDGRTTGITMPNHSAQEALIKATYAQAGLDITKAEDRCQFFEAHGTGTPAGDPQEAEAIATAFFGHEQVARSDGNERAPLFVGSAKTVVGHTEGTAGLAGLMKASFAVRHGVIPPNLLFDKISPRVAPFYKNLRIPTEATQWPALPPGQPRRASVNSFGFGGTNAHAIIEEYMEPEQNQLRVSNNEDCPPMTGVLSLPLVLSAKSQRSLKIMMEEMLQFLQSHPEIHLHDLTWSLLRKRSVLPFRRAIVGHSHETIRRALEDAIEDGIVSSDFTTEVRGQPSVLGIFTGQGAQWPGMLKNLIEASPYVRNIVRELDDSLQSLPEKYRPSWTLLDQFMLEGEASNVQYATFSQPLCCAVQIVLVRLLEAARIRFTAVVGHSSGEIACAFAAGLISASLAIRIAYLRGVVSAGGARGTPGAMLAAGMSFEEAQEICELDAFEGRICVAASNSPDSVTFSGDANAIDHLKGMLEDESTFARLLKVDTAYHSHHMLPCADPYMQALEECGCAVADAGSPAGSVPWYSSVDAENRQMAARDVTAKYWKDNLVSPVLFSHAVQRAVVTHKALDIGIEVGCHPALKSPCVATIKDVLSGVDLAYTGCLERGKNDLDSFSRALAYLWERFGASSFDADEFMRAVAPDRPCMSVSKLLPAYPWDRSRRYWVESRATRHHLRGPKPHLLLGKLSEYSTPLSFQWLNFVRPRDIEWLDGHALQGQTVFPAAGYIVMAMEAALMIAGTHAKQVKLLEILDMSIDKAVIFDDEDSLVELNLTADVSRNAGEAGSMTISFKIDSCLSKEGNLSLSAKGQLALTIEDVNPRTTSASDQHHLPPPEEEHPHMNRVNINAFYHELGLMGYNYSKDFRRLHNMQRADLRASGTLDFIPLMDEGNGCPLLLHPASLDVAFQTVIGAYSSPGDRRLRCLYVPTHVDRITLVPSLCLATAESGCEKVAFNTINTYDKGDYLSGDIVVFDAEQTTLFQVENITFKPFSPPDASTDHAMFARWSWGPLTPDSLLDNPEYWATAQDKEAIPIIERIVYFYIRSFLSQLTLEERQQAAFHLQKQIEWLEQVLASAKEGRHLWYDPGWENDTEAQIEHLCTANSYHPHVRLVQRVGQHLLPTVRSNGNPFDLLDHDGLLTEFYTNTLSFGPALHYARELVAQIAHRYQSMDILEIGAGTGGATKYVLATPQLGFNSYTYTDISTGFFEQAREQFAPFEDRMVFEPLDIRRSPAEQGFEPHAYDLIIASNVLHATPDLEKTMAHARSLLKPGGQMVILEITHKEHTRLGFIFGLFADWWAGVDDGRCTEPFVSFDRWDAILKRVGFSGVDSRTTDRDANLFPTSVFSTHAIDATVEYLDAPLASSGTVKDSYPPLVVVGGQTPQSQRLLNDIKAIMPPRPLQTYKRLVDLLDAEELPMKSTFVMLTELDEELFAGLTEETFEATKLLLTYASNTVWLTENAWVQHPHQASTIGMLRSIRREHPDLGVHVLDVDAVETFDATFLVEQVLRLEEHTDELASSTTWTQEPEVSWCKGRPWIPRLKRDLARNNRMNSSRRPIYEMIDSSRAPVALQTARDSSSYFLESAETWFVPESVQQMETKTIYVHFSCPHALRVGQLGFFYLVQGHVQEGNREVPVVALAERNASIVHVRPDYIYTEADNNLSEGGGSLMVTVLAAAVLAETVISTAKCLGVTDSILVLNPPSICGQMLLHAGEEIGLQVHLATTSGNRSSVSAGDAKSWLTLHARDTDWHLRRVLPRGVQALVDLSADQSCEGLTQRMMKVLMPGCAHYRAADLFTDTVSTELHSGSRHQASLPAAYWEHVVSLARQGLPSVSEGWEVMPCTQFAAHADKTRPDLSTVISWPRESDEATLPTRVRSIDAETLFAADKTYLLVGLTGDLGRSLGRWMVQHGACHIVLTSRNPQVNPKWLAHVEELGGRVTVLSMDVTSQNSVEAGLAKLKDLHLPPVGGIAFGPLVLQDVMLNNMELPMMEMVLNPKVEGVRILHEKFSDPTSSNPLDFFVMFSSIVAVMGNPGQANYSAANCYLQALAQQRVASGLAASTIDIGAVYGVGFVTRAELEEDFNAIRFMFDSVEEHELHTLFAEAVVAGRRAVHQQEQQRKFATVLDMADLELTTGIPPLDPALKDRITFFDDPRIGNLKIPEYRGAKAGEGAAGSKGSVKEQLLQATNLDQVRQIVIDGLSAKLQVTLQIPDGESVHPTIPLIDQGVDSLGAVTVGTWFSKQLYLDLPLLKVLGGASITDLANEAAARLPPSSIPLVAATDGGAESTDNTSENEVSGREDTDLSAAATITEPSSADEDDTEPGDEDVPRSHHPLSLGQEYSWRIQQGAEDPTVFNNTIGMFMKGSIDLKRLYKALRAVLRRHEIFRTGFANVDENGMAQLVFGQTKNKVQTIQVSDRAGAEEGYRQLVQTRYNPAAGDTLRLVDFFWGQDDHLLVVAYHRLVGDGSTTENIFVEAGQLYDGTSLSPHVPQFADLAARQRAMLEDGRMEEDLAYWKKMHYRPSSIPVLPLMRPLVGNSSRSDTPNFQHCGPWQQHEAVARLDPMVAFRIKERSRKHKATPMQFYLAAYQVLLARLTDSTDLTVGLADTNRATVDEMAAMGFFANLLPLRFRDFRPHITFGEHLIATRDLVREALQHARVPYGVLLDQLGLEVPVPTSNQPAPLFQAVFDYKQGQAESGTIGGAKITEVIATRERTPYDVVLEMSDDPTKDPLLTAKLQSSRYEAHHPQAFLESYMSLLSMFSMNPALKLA

Take `NC(=O)c1ccc[n+]([C@@H]2O[C@H](COP(=O)(O)OP(=O)(O)OC[C@H]3O[C@@H](n4cnc5c(N)ncnc54)[C@H](OP(=O)(O)O)[C@@H]3O)[C@@H](O)[C@H]2O)c1` [NADP+]: the cryo-EM structure entry on LovB was “The NADPH binding pocket with bound NADP^+ nicotinamide ring can be clearly identified”.

As for `NC(=O)C1=CN([C@@H]2O[C@H](COP(=O)(O)OP(=O)(O)OC[C@H]3O[C@@H](n4cnc5c(N)ncnc54)[C@H](OP(=O)(O)O)[C@@H]3O)[C@@H](O)[C@H]2O)C=CC1` [NADPH], at LovC, the “NADPH fluorescence (Ex 340 nm, Em 455 nm)” value is “NADPH was oxidized in the presence of substrate over time”.

Turning to “lovastatin nonaketide synthase (LovB), full-length, His-tagged, Q9Y8A5 1-3038”, the stoichiometry N (commonly a count of units in the complex or per binding partner) in assay [1] is 2.
